Measurements as given in ChEMBL document CHEMBL4622912, “Isolation and biological activity of agrostophillinol from kaffir lime (Citrus hystrix) leaves” (Bioorg Med Chem Lett, 2020).
Converted amounts (≈) assume the structure as drawn. Each block holds one molecule with its values, some of them ahead of it. The source made the active and inactive calls. The rule behind the calls is not given here.

Experiments:
KG-1a = assay: Antiproliferative activity against human KG1a cells assessed as reduction in cell viability incubated for 2 days by MTT assay; type: functional, cell-based; conditions: 48 h
[1] = Cytotoxicity against mouse RAW264.7 cells assessed as reduction in cell viability incubated for 2 days by MTT assay; type: cell-based
[2] = Cytotoxicity against mouse RAW264.7 cells assessed as cell viability at 2.7 ug/ml incubated for 2 days by MTT assay relative to control; type: cell-based; conditions: read-out: Activity
K562 = assay: Antiproliferative activity against human K562 cells assessed as reduction in cell viability incubated for 2 days by MTT assay; type: functional, cell-based; conditions: K562, 48 h
[3] = Antioxidant activity assessed as ferric reducing ability; type: functional
PBMC = assay: Cytotoxicity against human PBMC assessed as reduction in cell viability incubated for 2 days by MTT assay; type: cell-based; conditions: 48 h
[4] = Antioxidant activity assessed as trolox equivalent antioxidant capacity; type: functional
RAW264.7 [5] = assay: Antiinflammatory activity against mouse RAW264.7 cells assessed as reduction in TNFalpha level at 2.7 ug/ml; type: functional, cell-based
HL-60 = assay: Antiproliferative activity against human HL60 cells incubated for 2 days by MTT assay; type: functional, cell-based; conditions: HL-60, 48 h
[6] = Antioxidant activity assessed as DPPH radical scavenging activity; type: functional; conditions: dose or concentration not given here
RAW264.7 [7] = assay: Antiinflammatory activity against mouse RAW264.7 cells assessed as reduction in IL6 level at 2.7 ug/ml; type: functional, cell-based
EOL1 = assay: Antiproliferative activity against human EOL1 cells incubated for 2 days by MTT assay; type: functional, cell-based; conditions: EOL1, 48 h
RAW264.7 [8] = assay: Antiinflammatory activity against mouse RAW264.7 cells assessed as reduction in TNFalpha level; type: functional, cell-based
RAW264.7 [9] = assay: Antiinflammatory activity against mouse RAW264.7 cells assessed as reduction in IL6 level; type: functional, cell-based

SMILES: C=C(CC[C@@H](C)[C@H]1CC[C@@]2(C)[C@@H]3CC[C@H]4C(C)(C)[C@@H](O)CC[C@]4(C)C3=CC[C@]12C)C(C)C
IC50 (KG-1a): > 100 µg/mL
IC20 at 48 h [1]: 2.7 µg/mL (≈ 6.13 µM)
viability at 48 h, 2.7 ug/ml [2]: 80%
IC50 (K562): > 100 µg/mL
Activity [3]: 0.2 µM
IC50 (PBMC): > 100 µg/mL
Activity [4]: 0.1 µM
inhibition (RAW264.7 [5]): Active
IC50 (HL-60): 53.4 µg/mL (≈ 121 µM)
inhibition [6]: 8.6%
inhibition (RAW264.7 [7]): Active
IC50 (EOL1): 36.3 µg/mL (≈ 82.4 µM)

IC50 (K562): 45.8 µg/mL (≈ 154 µM)
SMILES: C/C(=C\CO)CCC[C@H](C)CCC[C@H](C)CCCC(C)C [TRANS-PHYTOL]

SMILES: O=C1O[C@H]([C@@H](O)CO)C(O)=C1O
Activity [3]: 23.7 µM
Activity [4]: 1.7 µM

SMILES: C[C@@H]1C[C@H]2[C@@H]3CCC4=CC(=O)C=C[C@]4(C)[C@@]3(F)[C@@H](O)C[C@]2(C)[C@@]1(O)C(=O)CO
inhibition (RAW264.7 [8]): Dose-dependent effect
inhibition (RAW264.7 [9]): Dose-dependent effect

IC50 (HL-60): 0.008 µg/mL (≈ 0.0097 µM)
SMILES: CC[C@]1(O)C[C@H]2CN(CCc3c([nH]c4ccccc34)[C@@](C(=O)OC)(c3cc4c(cc3OC)N(C=O)[C@H]3[C@@](O)(C(=O)OC)[C@H](OC(C)=O)[C@]5(CC)C=CCN6CC[C@]43[C@@H]65)C2)C1 [VINCRISTINE]

IC50 (K562): 82.8 µg/mL (≈ 194 µM)
SMILES: C=C(C)[C@@H]1CC[C@]2(C)CC[C@]3(C)[C@H](CC[C@@H]4[C@@]5(C)CC[C@H](O)C(C)(C)[C@@H]5CC[C@]43C)[C@@H]12 [LUPEOL]
